Columns and labels:
[1] = target: T1, aFGF (Homo sapiens, UniProt P05230); assay: Thermal denaturation (Tm) of aFGF by fluorescence spectroscopy; assay type: biochemical; conditions: for molar excess of ligand to aFGF required for 50% stabilization: FIG. 9; for Tm maximum of aFGF, fluorescence: saturating ligand, 100 μg/ml aFGF
T1 construct: The recombinant derived, 140 amino add form is the preferred form of aFGF; N-terminal methionine (MetHaFGF); made in house; host or cells: microbial cells (preferred embodiment)
T1 sequence (P05230 16-155 limits assumed): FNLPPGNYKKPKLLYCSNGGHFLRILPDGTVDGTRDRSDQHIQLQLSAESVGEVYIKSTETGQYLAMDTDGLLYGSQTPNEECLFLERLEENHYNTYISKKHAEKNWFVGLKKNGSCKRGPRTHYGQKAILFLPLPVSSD
Protocol: Fluorescence spectra are obtained with a Spex Fluorolog-2 spectrofiuorometer using a 1 mm pathlength cuvette. Band passes from 1-2 nm are employed with sample absorptivities maintained below 0.1 at 280 nm. The temperature is controlled either manually or automatically as described above. Reproducibility of thermal denaturation temperatures (Tm) is ± 2° C.
To more directly ascertain the effect of heparin on aFGF stability, the temperature-induced denaturation of aFGF as a function of heparin concentration was monitored by fluorescence spectroscopy. Fluorescence spectra were obtained with a Spex Fluorolog-2 spectrofiuorometer using a 1 mm pathlength cuvette. Band passes from 1-2 nm were employed with sample absorptivities maintained below 0.1 at 280 nm. The temperature was controlled either manually or automatically as described above. Reproducibility of thermal denaturation temperatures (Tm) was ±2° C. […] Experiments were carried out at 100 μg/ml protein (6.3 μM) in a PBS buffer at pH 7.2. Curve drawn through data points for clarity only.
Studies of the stabilization of aFGF by heparin are difficult to interpret because of the inherent heterogeneity of heparin preparations, Lane and Lindahl, Eds. Heparin, Chemical and Biological Properties, Clinical Applications, Edward Arnold, London (1989); Jackson, et al., Physiol. Rev. 71: 481-539 (1991). In order to better understand the polyanionic stabilization of aFGF, a series of well-defined fragments of heparin were examined for their ability to stabilize aFGF against thermal denaturation. These enzymatically prepared and purified fragments varied in size from a disaccharide to a decasaccharide. Each fragment was incubated with aFGF at a 1:1 weight ratio in a PBS buffer. The sample was then stressed by temperature and structural changes in aFGF were monitored by both circular dichroism and fluorescence spectroscopy. […] All samples contained 100 μg/ml aFGF (6.3 μM)in a PBS buffer (pH 7.2) with 100 μg/ml of each heparin fragment.
Since these fragments of heparin have a well-defined molecular weight, the molar ratio of aFGF to ligand during these thermal denaturation experiments can be calculated. The Tm of aFGF as a function of the molar concentration of the hexasaccharide was measured by fluorescence spectroscopy. Fluorescence spectra were obtained with a Spex Fluorolog-2 spectrofiuorometer using a 1mm pathlength cuvette. Band passes from 1-2 nm were employed with sample absorptivities maintained below 0.1 at 280 nm. The temperature was controlled either manually or automatically as described above. Reproducibility of thermal denaturation temperatures (Tm) was ±2° C.
Analogous to the heparin experiments illustrated in Example 1 (FIG. 3), aFGF thermal stability was monitored by fluorescence spectroscopy as a function of concentration for several other of the polyanions. […] All samples contained 100 μg/ml of aFGF (6.3 μM) in a PBS buffer at pH 7.2.

[2] = tested on: genetically diabetic C57GBL/Ks- db+/db^+ female mice; assay: In vivo wound healing model (single 2 cm^2 full thickness wound); parameters: species or system mouse; conditions: with aFGF
Excerpt: The in vivo animal wound healing model employs genetically diabetic c57GBL/Ks- db+/db+ female mice. The assay follows that described by Marsella et al., Wounds: A Compendium of Clinical Research and Practice, 2, (4) July/August 1990, p. 135-147, except that a single 2 cm^2 full thickness wound is used instead of the two 6 mm biopsy wounds described by Marsella. Another difference is that the wounds are covered with a polyurethane dressing. Addic FGF is applied to wounds on days 0, 3 and 7. Matching placebo formulations are used in a second group of animals. Dressings are changed every three to four days, at which time wound perimeters are traced for assessment of healing. Comparison of healing rate va. a placebo control is made and evaluated for statistical significance at the 90% healed stage.
Human aFGF as described above was combined with various stabilizers to evaluate wound healing activity of the stabilized aFGF. The in vivo animal wound healing model employs genetically diabetic C57GBL/Ks- db+/db^+ female mice (Jackson Laboratory). The assay follows that described by Marsella et. al., Wounds: A Compendium of Clinical Research and Practice, 2, (4) July/August 1990, p. […] Comparison of healing rate vs. a placebo control is made and evaluated for statistical significance at the 90% healed stage. […]

[3] = tested on: BALB/c 3T3 A31 fibroblasts; assay: Fibroblast mitogenic assay ([3H]-thymidine incorporation into DNA); assay type: cell-based; conditions: presence of heparin
[4] = tested on: plasma; assay: Anticoagulant activity: clotting time (PT / aPTT assay) relative to heparin; assay type: biochemical; conditions: equal weight of heparin, no aFGF present
Protocol: Clotting times are monitored by either a one-stage plasma prothrombin time assay (PT assay) or an activated partial thromboplastin time assay (aPTT) using an automated optical detection system (coag-a-Mate®-XC) by General Diagnostics. Clotting times are measured in the presence of varying amounts of heparin (0-50 μg heparin/ml plasma) to generate a standard curve and dotting times of other compounds (at equal wt. amounts) are obtained relative to these standardized values.
^(c) Anticoagulant activity is expressed as a fraction of activity
observed with an equal weight of heparin (+ less than 1/10; ++ 1/10 to
1/2; +++ heparin). No aFGF is present during these measurements.
The anticoagulant properties of heparin are well established, so it was of interest to determine the relative anticoagulant properties of the ligands of this study. The anticoagulant effect of these molecules was measured using a dotting time assay (see methods). Clotting times were monitored by either a one-stage plasma prothrombin time assay (PT assay) or an activated partial thromboplastin time assay (aPTT) using an automated optical detection system (coag-a-Mate*-XC) by General Diagnostics. […]

For `O=P(O)(O)O[C@H]1[C@H](OP(=O)(O)O)[C@@H](OP(=O)(O)O)[C@H](OP(=O)(O)O)[C@@H](OP(=O)(O)O)[C@H]1OP(=O)(O)O` [Inositol hexaphosphate, inositol hexaphosphate], the “molar excess of ligand to aFGF required for 50% stabilization” value (“molar excess … for 50% stabilization” for short) ([1]; fluorescence) was ~2 and the “Tm maximum of aFGF, fluorescence” value ([1]; PBS pH 7.2) was 60 °C.
In the case of `O=S(=O)(O)OC1C(OS(=O)(=O)O)C(OS(=O)(=O)O)C(OS(=O)(=O)O)C(OS(=O)(=O)O)C1OS(=O)(=O)O` (stereo not shown) [Inositol hexasulfate, inositol hexasulfate], the “wound healing efficacy” value [2] was “as efficacious as heparin in stimulating”, the “molar excess … for 50% stabilization” value ([1]; fluorescence) was ~3.5 and the “Tm maximum of aFGF, fluorescence” value ([1]; PBS pH 7.2) was 53 °C.
With `O=P(O)(O)OP(=O)(O)OP(=O)(O)OP(=O)(O)O` [Tetrapolyphosphate] the “molar excess … for 50% stabilization” value ([1]; fluorescence) was “approximately 6”, the “Tm maximum of aFGF, fluorescence” value ([1]; PBS pH 7.2) was 50 °C and the “mitogenic activity of aFGF” value [3] was “showed activity when assayed in the presence of heparin”.
With heparin [reference compound] the “Anticoagulant Activity of Ligand (% Heparin by Wt)” value [4] was “+ ++”, the “thermal melting temperature (Tm) of aFGF, fluorescence” value ([1]; 1/3X ligand by weight, PBS pH 7.2) was 59 °C and the “thermal melting temperature (Tm) of aFGF, fluorescence” value ([1]; 3X ligand by weight, PBS pH 7.2) was 61 °C. The “concentration of heparin necessary to obtain one-half the Tm maximum” value ([1]; fluorescence, PBS pH 7.2) was 0.1 X (by weight) and the “Tm maximum of aFGF, fluorescence” value ([1]; PBS pH 7.2) was 61 °C.
With sulfated β-cyclodextrin the “wound healing efficacy” value [2] was “as efficacious as heparin in stimulating”, the “molar excess … for 50% stabilization” value ([1]; fluorescence) was ~1.5 and the “Tm maximum of aFGF, fluorescence” value ([1]; PBS pH 7.2) was 56 °C.
